Reference: patent publication US20230043863A1, “HETEROAROMATIC DERIVATIVES FOR USE AS REGULATOR, PREPARATION METHOD THEREFOR AND USE THEREOF” (JIANGSU HANSOH PHARMACEUTICAL GROUP CO., LTD., priority 2018, published 2023)

Experiments:
[1] = target: JAK1 (Homo sapiens, UniProt P23458); assay: JAK kinase activity inhibition, TR-FRET (JAK1); format: biochemical; settings: TR-FRET kinase assay
Description: (§1) Experimental objective: The objective of this test is to test the inhibitory effect of the compound on JAK kinase activity.
(§2) Experimental method: the fluorescence resonance energy transfer (TR-FRET) method was used to test the inhibitory effect of the compound on JAK kinase activity, and the half inhibitory concentration IC50 of the compound on JAK kinase activity was obtained.
(§3) Kinase reaction was carried out in a white 384-well plate (PerkinElmer). 1-5 μL of different concentrations of the compound diluted with DMSO and ddH2O was added into each well, and 1-5 μL of the corresponding solvent was added to the positive control wells, followed by addition of 0.1-20 nM JAK kinase solution diluted with 1-5 μL of kinase buffer (HEPES 50-250 mM, MgCl2 5-20 mM, etc.) was added to each well. 1-5 μL of kinase buffer was added to the negative control well. 1-5 μL of substrate mixture containing peptide substrate and ATP was added. The plate was incubated at room temperature for 0.5-5 hours. […], EDTA and detection solution containing labeled antibody was added, and then the plate was incubated at room temperature for another 1-24 hours. The fluorescence signal value at about 620 nm and 665 nm of each well was measured by BioTek Synergy H1 plate reader, and the inhibition rate was calculated by the fluorescence signal value. According to the inhibition rate of different concentrations, the IC50 of the compound was obtained by curve fitting.
(§4) The percentage inhibition data of the wells treated with the compound was calculated with the positive control wells (DMSO control wells) and negative control wells (no kinase added) on the plate {% inhibition rate=100-[(test compound value-negative control value)]/(Positive control value-negative control value)×100}. IC50 value was calculated by using GraphPad prism to fit the data of different concentrations and corresponding percentage inhibition rates to a 4-parameter non-linear logic formula.

[2] = target: TYK2 (Homo sapiens, UniProt P29597); assay: JAK kinase activity inhibition, TR-FRET (TYK2); format: biochemical; settings: TR-FRET kinase assay
Sequence of TYK2 (P29597 whole entry): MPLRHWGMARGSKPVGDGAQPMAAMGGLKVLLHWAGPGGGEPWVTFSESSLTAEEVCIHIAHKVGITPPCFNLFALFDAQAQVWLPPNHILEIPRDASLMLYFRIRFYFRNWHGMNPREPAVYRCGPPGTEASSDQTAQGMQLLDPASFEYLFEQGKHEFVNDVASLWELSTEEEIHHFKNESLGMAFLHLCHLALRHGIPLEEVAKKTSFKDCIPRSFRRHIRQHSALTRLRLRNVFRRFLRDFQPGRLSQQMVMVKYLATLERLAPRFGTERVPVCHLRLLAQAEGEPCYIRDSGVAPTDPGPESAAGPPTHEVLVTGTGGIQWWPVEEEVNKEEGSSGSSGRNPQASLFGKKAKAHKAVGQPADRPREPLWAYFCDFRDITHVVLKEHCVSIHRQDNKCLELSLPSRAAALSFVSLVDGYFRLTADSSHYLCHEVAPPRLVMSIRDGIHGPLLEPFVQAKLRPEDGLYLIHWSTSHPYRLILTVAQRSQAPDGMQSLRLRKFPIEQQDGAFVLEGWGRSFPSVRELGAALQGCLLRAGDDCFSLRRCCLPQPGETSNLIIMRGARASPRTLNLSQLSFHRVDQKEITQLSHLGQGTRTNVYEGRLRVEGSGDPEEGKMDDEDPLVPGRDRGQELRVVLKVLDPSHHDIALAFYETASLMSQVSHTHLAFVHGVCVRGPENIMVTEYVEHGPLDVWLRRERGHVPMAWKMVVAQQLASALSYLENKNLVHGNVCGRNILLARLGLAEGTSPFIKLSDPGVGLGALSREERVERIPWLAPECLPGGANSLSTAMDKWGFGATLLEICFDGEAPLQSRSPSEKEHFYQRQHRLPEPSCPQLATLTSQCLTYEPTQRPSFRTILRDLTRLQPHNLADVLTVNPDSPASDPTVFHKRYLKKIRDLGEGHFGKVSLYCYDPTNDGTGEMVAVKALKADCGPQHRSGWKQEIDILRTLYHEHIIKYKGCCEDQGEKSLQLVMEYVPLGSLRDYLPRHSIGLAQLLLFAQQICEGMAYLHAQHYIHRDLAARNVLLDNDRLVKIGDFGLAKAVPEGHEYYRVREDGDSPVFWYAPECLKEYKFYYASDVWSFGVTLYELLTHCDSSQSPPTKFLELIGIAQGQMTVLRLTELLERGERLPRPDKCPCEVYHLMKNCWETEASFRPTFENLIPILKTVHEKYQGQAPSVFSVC
Description: as §1, §2, §3, §4

Sequence of JAK1 (P23458 whole entry): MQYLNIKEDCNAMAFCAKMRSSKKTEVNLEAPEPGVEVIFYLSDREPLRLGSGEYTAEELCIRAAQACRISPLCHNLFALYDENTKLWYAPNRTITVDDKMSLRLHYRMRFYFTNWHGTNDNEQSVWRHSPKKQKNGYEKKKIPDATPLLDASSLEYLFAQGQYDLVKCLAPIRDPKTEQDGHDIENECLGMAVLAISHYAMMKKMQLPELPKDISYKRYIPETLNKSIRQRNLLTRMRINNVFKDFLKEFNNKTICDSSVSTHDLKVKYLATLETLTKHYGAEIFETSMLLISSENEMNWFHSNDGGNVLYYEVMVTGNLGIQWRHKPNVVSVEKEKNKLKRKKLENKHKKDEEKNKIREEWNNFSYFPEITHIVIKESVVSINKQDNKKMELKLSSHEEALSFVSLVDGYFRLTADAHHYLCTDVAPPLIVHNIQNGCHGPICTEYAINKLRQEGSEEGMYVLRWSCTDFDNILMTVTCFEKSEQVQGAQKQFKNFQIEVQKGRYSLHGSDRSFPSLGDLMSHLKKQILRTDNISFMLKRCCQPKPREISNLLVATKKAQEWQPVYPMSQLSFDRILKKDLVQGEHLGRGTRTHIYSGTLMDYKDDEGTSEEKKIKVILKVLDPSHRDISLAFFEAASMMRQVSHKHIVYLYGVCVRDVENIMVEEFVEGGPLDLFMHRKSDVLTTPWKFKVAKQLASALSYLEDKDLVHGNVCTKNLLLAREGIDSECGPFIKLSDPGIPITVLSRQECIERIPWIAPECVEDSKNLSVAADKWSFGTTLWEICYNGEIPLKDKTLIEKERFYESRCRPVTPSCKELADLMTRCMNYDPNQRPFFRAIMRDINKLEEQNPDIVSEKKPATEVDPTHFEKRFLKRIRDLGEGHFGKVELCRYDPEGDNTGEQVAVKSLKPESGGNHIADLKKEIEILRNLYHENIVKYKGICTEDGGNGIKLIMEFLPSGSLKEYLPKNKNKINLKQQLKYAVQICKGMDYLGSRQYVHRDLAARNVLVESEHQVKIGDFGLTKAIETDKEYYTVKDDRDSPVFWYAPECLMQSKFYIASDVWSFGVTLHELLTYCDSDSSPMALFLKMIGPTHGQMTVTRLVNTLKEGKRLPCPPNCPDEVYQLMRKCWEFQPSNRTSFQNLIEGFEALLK

Compound | IC50 [1] [nM] | IC50 [2] [nM]
Cc1cc(Nc2cc3ncccc3c(N[C@@H]3C[C@H]4CC[C@@H](C3)N4S(=O)(=O)c3cn[nH]c3)n2)n[nH]1 [Embodiment 315, N5-((3-exo)-8-((1H-pyrazol-4-yl)sulfonyl)-8-azabicyclo[3.2.1]oct-3-yl)-N7-(5-methyl-1H-pyrazol-3-yl)-1,6-diazanaphthalen-5,7-diamine] | 13.1 | > 100
Cc1cc(Nc2nc(N[C@@H]3C[C@H]4CC[C@@H](C3)N4S(=O)(=O)N3CC(C#N)C3)nc3cc(C4CC4)ccc23)n[nH]1 [Embodiment 216, 1-(((3-exo)-3-((7-cyclopropyl-4-((5-methyl-1H-pyrazol-3-yl)amino)quinazolin-2-yl)amino)-8-azabicyclo[3.2.1]oct-8-yl)sulfonyl)azetindin-3-formonitrile] | 0.04 | 0.48
Cc1cc(Nc2nc(N[C@@H]3C[C@H]4CC[C@@H](C3)N4S(=O)(=O)c3cccnc3)nc3ccccc23)n[nH]1 [Embodiment 232] | 7.2 | 2
Cc1cc(Nc2nc(N[C@@H]3C[C@H]4CCC[C@@H](C3)N4S(=O)(=O)c3nccn3C)nc3sccc23)n[nH]1 [Embodiment 269] | 3.22 | 3.08
Cc1cc(Nc2nc(N[C@@H]3C[C@H]4CC[C@@H](C3)N4C(=O)c3cccnc3)nc3ccccc23)n[nH]1 [Embodiment 227, ((3-exo)-3-((4-((5-methyl-1H-pyrazol-3-yl)amino)quinazolin-2-yl)amino)-8-azabicyclo[3.2.1]oct-8-yl)(pyridin-3-yl)methanone] | 5.17 | 4.77
CC(C)(O)c1cnc(Nc2cc3ncccc3c(N[C@@H]3C[C@H]4CC[C@@H](C3)N4CCC#N)n2)s1 [Embodiment 31, 3-((3-exo)-3-((7-((5-(e2-hydroxypropan-2-yl)thiazol-2-yl)amino)-1,6-diazanaphthalen-5-yl)amino)-8-azabicyclo[3.2.1]oct-8-yl)propionitrile] | 48.6 | > 100
Cc1cc(Nc2nc(NC3CCN(S(=O)(=O)N4CC(C#N)C4)CC3)nc3sccc23)n[nH]1 [Embodiment 302, 1-((4-((4-((5-methyl-1H-pyrazol-3-yl)amino)thieno[2,3-d]pyrimidin-2-yl)amino)piperidin-1-yl)sulfonyl)azetindin-3-formonitrile] | 1.89 | 0.34
N#CCCN1[C@@H]2CC[C@H]1C[C@H](Nc1nc(Nc3ncc(C#N)s3)cc3ncccc13)C2 [Embodiment 160, 2-((5-(((3-exo)-8-(2-cyanoethyl)-8-azabicyclo[3.2.1]oct-3-yl)amino)-1,6-diazanaphthalen-7-yl)amino)thiazol-5-formonitrile] | 11.7 | 6.15
Cc1cc(Nc2nc(NC3CCN(S(=O)(=O)N4CC(C#N)C4)CC3)nc3ccccc23)n[nH]1 [Embodiment 311, 1-((4-((4-((5-methyl-1H-pyrazol-3-yl)amino)quinazolin-2-yl)amino)piperidin-1-yl)sulfonyl)azetindin-3-formonitrile] | 7.5 | 1.44
N#CCCN1[C@@H]2CC[C@H]1C[C@H](Nc1nc(Nc3ncc(CCO)s3)cc3ncccc13)C2 [Embodiment 161, 3-((3-exo)-3-((7-((5-(2-hydroxylethyl)thiazol-2-yl)amino)-1,6-diazanaphthalen-5-yl)amino)-8-azabicyclo[3.2.1]oct-8-yl)propionitrile] | 20.8 | 35
Cc1cc(Nc2nc(N[C@@H]3C[C@H]4CC[C@@H](C3)N4S(=O)(=O)c3ccccn3)nc3sccc23)n[nH]1 [Embodiment 266, N4-(5-methyl-1H-pyrazol-3-yl)-N2-((3-exo)-8-(pyridin-2-ylsulfonyl)-8-azabicyclo[3.2.1]oct-3-yl)thieno[2,3-d]pyrimidin-2,4-diamine] | 10.5 | 10.2

Other lines, results leading:

IC50 [1] [nM] | IC50 [2] [nM] | Compound
0.35 | 0.56 | Cc1cc(Nc2nc(N[C@@H]3C[C@H]4CC[C@@H](C3)N4CCC#N)nc3cc(-c4ccncc4)ccc23)n[nH]1 [Embodiment 180, 3-((3-exo)-3-((4-((5-methyl-1H-pyrazol-3-yl)amino)-7-(pyridin-4-yl)quinazolin-2-yl)amino)-8-azabicyclo[3.2.1]oct-8-yl)propionitrile]
2.71 | 10.1 | N#CCCN1[C@@H]2CC[C@H]1C[C@H](Nc1nc(Nc3cc(C4CC4)[nH]n3)cc3ncccc13)C2 [Embodiment 12, 3-((3-exo)-3-((7-((5-cyclopropyl-1H-pyrazol-3-yl)amino)-1,6-diazanaphthalen-5-yl)amino)-8-azabicyclo[3.2.1]oct-8-yl)propionitrile]
30.6 | > 100 | N#CCCN1[C@@H]2CC[C@H]1C[C@H](Nc1nc(Nc3cc(F)[nH]n3)cc3ncccc13)C2 [Embodiment 9, 3-((3-exo)-3-((7-((5-fluoro-1H-pyrazol-3-yl)amino)-1,6-diazanaphthalen-5-yl)amino)-8-azabicyclo[3.2.1]oct-8-yl)propionitrile]
2.95 | 5.77 | Cc1cc(Nc2cc3nccn3c(N[C@@H]3C[C@H]4CC[C@@H](C3)N4CCC#N)n2)n[nH]1 [Embodiment 79, 3-((3-exo)-3-((7-((5-methyl-1H-pyrazol-3-yl)amino)imidazo[1,2-c]pyrimidin-5-yl)amino)-8-azabicyclo[3.2.1]oct-8-yl)propionitrile]
9.16 | 0.94 | Cc1cc(Nc2nc(N[C@@H]3C[C@H]4CC[C@@H](C3)N4C(=O)CN(C)C)nc3ccccc23)n[nH]1 [Embodiment 225, 2-(dimethylamine)-1-((3-exo)-3-((4-((5-methyl-1H-pyrazol-3-yl)amino)quinazolin-2-yl)amino)-8-azabicyclo[3.2.1]oct-8-yl)ethane-1-one]
2.23 | 40.7 | N#CCCN1[C@@H]2CC[C@H]1C[C@H](Nc1nc(Nc3cc(CO)[nH]n3)cc3ncccc13)C2 [Embodiment 19, 3-((3-exo)-3-((7-((5-(hydroxymethyl)-1H-pyrazol-3-yl)amino)-1,6-diazanaphthalen-5-yl)amino)-8-azabicyclo[3.2.1]oct-8-yl)propionitrile]
13.1 | 0.3 | Cc1cc(Nc2nc(N[C@@H]3C[C@H]4CC[C@@H](C3)N4C(=O)c3ccccn3)nc3ccccc23)n[nH]1 [Embodiment 226, ((3-exo)-3-((4-((5-methyl-1H-pyrazol-3-yl)amino)quinazolin-2-yl)amino)-8-azabicyclo[3.2.1]oct-8-yl)(pyridin-2-yl)methanone]
0.37 | 0.25 | COc1cncc(-c2ccc3c(Nc4cc(C)[nH]n4)nc(N[C@@H]4C[C@H]5CC[C@@H](C4)N5CCC#N)nc3c2)c1 [Embodiment 182]
0.23 | 0.19 | Cc1cc(Nc2nc(N[C@@H]3C[C@H]4CC[C@@H](C3)N4CCC#N)nc3cc(-n4ccnc4)ccc23)n[nH]1 [Embodiment 203, 3-((3-exo)-3-((7-(1H-imidazol-1-yl)-4-((5-methyl-1H-pyrazol-3-yl)amino)quinazolin-2-yl)amino)-8-azabicyclo[3.2.1]oct-8-yl)propionitrile]
5.11 | 14.7 | Cc1cc(Nc2nc(N[C@@H]3C[C@@H]4CN(CCC#N)C[C@@H]4C3)nc3ccccc23)n[nH]1 [Embodiment 300, 3-(cis-5-((4-((5-methyl-1H-pyrazol-3-yl)amino)quinazolin-2-yl)amino)hexahydrocyclopentadieno[c]pyrrole-2(1H)-yl)propionitrile]
0.14 | 0.48 | Cc1cc(Nc2nc(N[C@@H]3C[C@H]4CC[C@@H](C3)N4CCC#N)nc3cc(-c4ccccc4)ccc23)n[nH]1 [Embodiment 184, 3-((3-exo)-3-((4-((5-methyl-1H-pyrazol-3-yl)amino)-7-phenylquinazolin-2-yl)amino)-8-azabicyclo[3.2.1]oct-8-yl)propionitrile]
4.03 | 10.7 | N#CCCN1[C@@H]2CC[C@H]1C[C@H](Nc1nc(Nc3cc[nH]n3)cc3ncccc13)C2 [Embodiment 6, 3-((3-exo)-3-((7-((1H-pyrazol-3-yl)amino)-1,6-diazanaphthalen-5-yl)amino)-8-azabicyclo[3.2.1]oct-8-yl)propionitrile]
> 100 | 42.8 | Cc1cc(Nc2nc(N[C@@H]3C[C@H]4CC[C@@H](C3)N4CCC#N)nc3cccc(Cl)c23)n[nH]1 [Embodiment 175, 3-((3-exo)-3-((5-chloro-4-((5-methyl-1H-pyrazol-3-yl)amino)quinazolin-2-yl)amino)-8-azabicyclo[3.2.1]oct-8-yl)propionitrile]
0.29 | 0.6 | Cc1cc(Nc2nc(N[C@@H]3C[C@H]4CC[C@@H](C3)N4CCC#N)nc3cc(-c4cnn(C5CC5)c4)ccc23)n[nH]1 [Embodiment 185, 3-((3-exo)-3-((7-(1-cyclopropyl-1H-pyrazol-4-yl)-4-((5-methyl-1H-pyrazol-3-yl)amino)quinazolin-2-yl)amino)-8-azabicyclo[3.2.1]oct-8-yl)propionitrile]
